Data on 13 compounds can be found in ChEMBL document CHEMBL1201862, “PubChem BioAssay data set” (2004).

Some test systems named below: OVCAR-3; HCC 2998; CCRF-CEM; COLO 205; SF-268; SW-620; HT-29; NCI-H23; LOX IMVI; Malme-3M; A549; SK-MEL-5; M14; HL-60; SF-539; OVCAR-4; OVCAR-5.
What all share (test): NCI anticancer screen, dose series, 48 h

Each structure is given as a SMILES string.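 Assay format: 96-well plates, 48-hour exposure. GI50 is the concentration that inhibits growth by half.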 Active and inactive are the calls of the source. Cut-off read from the data, not from the text of the source: active = GI50 up to about 1.1 µM and inactive = higher.

Consider `CCCCCCCCCC(=O)NC(Cc1ccc(O)cc1)C(=O)NCCCNCCCCNCCCNC(=O)[C@@H](N)CCCN=C(N)N` (stereo partly drawn), for which the GI50 in the test on OVCAR-3 is > 100 µM (inactive); in the test with HCC 2998 it was 27.7 µM (inactive); with CCRF-CEM it was 84.9 µM (inactive); in the test on COLO 205 it was 13.8 µM (inactive); with SF-268 it was 82.2 µM (inactive); in the test on SW-620, > 100 µM (inactive). Further, the GI50 in the test with HT-29 was > 100 µM (inactive); with NCI-H23, 57.7 µM (inactive); with LOX IMVI, 84.1 µM (inactive); in the test with Malme-3M, 20.4 µM (inactive); in the test with A549, 76 µM (inactive); with SK-MEL-5 it was 12.8 µM (inactive). The GI50 with M14 was > 100 µM (inactive); with HL-60, 16.2 µM (inactive); with SF-539, 11 µM (inactive).
With `Cc1cc(C)nc(NS(=O)(=O)c2ccc(Nc3c4ccccc4nc4c(C(=O)NCCN(C)C)ccc(Cl)c34)cc2)n1`, the GI50 in the test on OVCAR-3 is 7.64 µM (inactive); with HCC 2998, 13.8 µM (inactive); with CCRF-CEM, 1.31 µM (inactive); in the test with COLO 205, 1.06 µM (active); in the test with SF-268, 1.51 µM (inactive); in the test with OVCAR-4, 1.1 µM (active). Besides, the GI50 in the test with SW-620 is 0.679 µM (active); with HT-29 it was 0.659 µM (active); with NCI-H23, 2.43 µM (inactive); with OVCAR-5, 4.7 µM (inactive); with LOX IMVI it was 0.711 µM (active); in the test on A549, 0.942 µM (active). In addition, the GI50 in the test on SK-MEL-5 is 4.38 µM (inactive); in the test on M14, 2.9 µM (inactive); in the test with HL-60, 1.44 µM (inactive); with SF-539 it was 2.36 µM (inactive).
In the case of `COc1c(C)cc2c(c1O)C1C3[C@H]4SC[C@@]5(NCCC6=C5NC5C=CC=CC65)C(=O)OCC(c5c6c(c(C)c(OC(C)=O)c54)OCO6)N3[C@@H](O)C(C2)N1C` (stereo partly drawn), the GI50 in the test with OVCAR-3, in the test on HCC 2998, in the test with CCRF-CEM, in the test on COLO 205, in the test with SF-268 and in the test on SW-620 was < 0.01 µM (active) each time. In addition, the GI50 with HT-29, in the test with NCI-H23, in the test on LOX IMVI, in the test on Malme-3M, with A549 and in the test on SK-MEL-5 was < 0.01 µM (active) each time. Moreover, the GI50 in the test on M14, in the test on HL-60 and in the test on SF-539 was < 0.01 µM (active) throughout.
As to `COC(=O)c1cc(=O)nc2cc3cccccc3n12`, the GI50 in the test on OVCAR-3, in the test on HCC 2998, with CCRF-CEM, in the test with COLO 205, with SW-620 and in the test with HT-29 was > 100 µM (inactive) in each case. The GI50 with NCI-H23, in the test on OVCAR-5, in the test with LOX IMVI, in the test on Malme-3M, with A549 and in the test with SK-MEL-5 was > 100 µM (inactive) throughout. Besides, the GI50 in the test on M14, in the test with HL-60 and with SF-539 was > 100 µM (inactive) each time.
With `CC(=O)CCC1(c2ccccc2)OC(=O)C(C#N)=C1c1ccccc1` (stereo not drawn), the GI50 in the test on OVCAR-3 was 86.3 µM (inactive); with HCC 2998, > 100 µM (inactive); in the test with CCRF-CEM, 43.5 µM (inactive); with COLO 205, > 100 µM (inactive); in the test on SF-268, 70 µM (inactive); in the test with OVCAR-4, 80.4 µM (inactive). In addition, the GI50 in the test with SW-620, in the test on HT-29, in the test on NCI-H23, in the test on OVCAR-5, with LOX IMVI and in the test with Malme-3M was > 100 µM (inactive) throughout. The GI50 in the test with A549, in the test with SK-MEL-5, in the test on M14 and in the test with SF-539 was > 100 µM (inactive) in each case.
`C[C@]12CC/C(=N\O)C=C1CC[C@@H]1C2CC[C@@]2(C)C1CC[C@@H]2OC1CCCCO1` (stereo partly drawn): the GI50 was 16.9 µM (inactive) with OVCAR-3; 15.4 µM (inactive) with HCC 2998; 17.4 µM (inactive) in the test with COLO 205; 23.3 µM (inactive) in the test on SF-268; 15.6 µM (inactive) in the test on OVCAR-4; 18.1 µM (inactive) with SW-620. The GI50 was 14.3 µM (inactive) in the test on HT-29; 17.3 µM (inactive) with NCI-H23; 15.5 µM (inactive) with OVCAR-5; 17.7 µM (inactive) in the test on LOX IMVI; 21.9 µM (inactive) in the test on Malme-3M; 22.6 µM (inactive) in the test on A549. Besides, the GI50 is 32.1 µM (inactive) in the test with SK-MEL-5, 18.3 µM (inactive) in the test on M14 and > 10 µM (inactive) in the test with SF-539.
Turning to `NC(CSSCC(N)Cc1ccccc1)Cc1ccccc1` (stereo not drawn), the GI50 was 33 µM (inactive) with OVCAR-3; > 100 µM (inactive) in the test on HCC 2998; 32.9 µM (inactive) in the test on CCRF-CEM; 32.7 µM (inactive) in the test on COLO 205; 49.4 µM (inactive) in the test with SF-268; 70.8 µM (inactive) in the test with OVCAR-4. Further, the GI50 with SW-620 was 31.6 µM (inactive); in the test on HT-29 it was 44 µM (inactive); in the test with NCI-H23, 44.4 µM (inactive); in the test with OVCAR-5 it was 44.3 µM (inactive); in the test with LOX IMVI, 29.7 µM (inactive); with Malme-3M, 57.3 µM (inactive). For the same compound, the GI50 in the test with A549 is 65.8 µM (inactive); with SK-MEL-5, 24 µM (inactive); with M14, 26.4 µM (inactive); with HL-60, 32.7 µM (inactive).
With `COCN1COCN(C)C1=O`, the GI50 in the test with OVCAR-3, in the test on HCC 2998, in the test with CCRF-CEM, with COLO 205, with SF-268 and in the test on OVCAR-4 was > 100 µM (inactive) each time. Also, the GI50 with SW-620, in the test with HT-29, in the test with NCI-H23, with OVCAR-5, in the test on LOX IMVI and with Malme-3M was > 100 µM (inactive) each time. In addition, the GI50 with A549, in the test on SK-MEL-5, in the test on M14 and with SF-539 was > 100 µM (inactive) in each case.
With `C[C@@H](NC1CCC[C@@H]1O)c1ccccc1` (stereo partly drawn), the GI50 in the test on OVCAR-3, in the test on HCC 2998, with CCRF-CEM, with COLO 205, with OVCAR-4 and in the test on SW-620 was > 100 µM (inactive) in each case. The GI50 in the test on HT-29, in the test on OVCAR-5, with LOX IMVI, with Malme-3M, in the test on A549 and in the test with SK-MEL-5 was > 100 µM (inactive) in each case. For the same compound, the GI50 in the test with M14 and in the test with HL-60 was > 100 µM (inactive) in each case.
For `Cc1cc(Br)cc(C)c1NC(=O)C(=O)C(C(=O)c1ccncc1)C1OC(=O)c2ccccc21` (stereo not drawn), the GI50 in the test on OVCAR-3, in the test on HCC 2998, in the test with CCRF-CEM, with COLO 205, with SF-268 and in the test with OVCAR-4 was > 100 µM (inactive) throughout. Further, the GI50 in the test on SW-620, in the test on NCI-H23, in the test on OVCAR-5, in the test on LOX IMVI, with Malme-3M and in the test with A549 was > 100 µM (inactive) throughout. For the same compound, the GI50 with M14 and in the test on HL-60 was > 100 µM (inactive) throughout.
Turning to `N#CC1CCCCOCCOCCOCCOCCOCCCCCC1=O` (stereo not drawn), the GI50 in the test with OVCAR-3, in the test with HCC 2998, with CCRF-CEM, with COLO 205, with SF-268 and in the test with OVCAR-4 was > 100 µM (inactive) throughout. In addition, the GI50 with SW-620, in the test on HT-29, in the test with NCI-H23, with OVCAR-5, in the test on LOX IMVI and in the test with Malme-3M was > 100 µM (inactive) throughout. Moreover, the GI50 in the test with A549, in the test with SK-MEL-5, in the test on M14 and in the test with HL-60 was > 100 µM (inactive) each time.
Turning to `Cc1cn(C2CC(N(O)Cc3ccccc3)C(CO)O2)c(=O)[nH]c1=O` (stereo not drawn), the GI50 in the test on OVCAR-3, in the test on HCC 2998, with CCRF-CEM, in the test on COLO 205, in the test with SF-268 and in the test with OVCAR-4 was > 100 µM (inactive) throughout. Also, the GI50 in the test on SW-620, in the test on HT-29, in the test with NCI-H23, with OVCAR-5, with LOX IMVI and in the test with A549 was > 100 µM (inactive) in each case. For the same compound, the GI50 with SK-MEL-5, with M14, with HL-60 and in the test with SF-539 was > 100 µM (inactive) throughout.
With `CSc1c([S+](C)[O-])[nH]c2cc(Br)cc(Br)c12` (stereo not drawn), the GI50 in the test with OVCAR-3 is 20.6 µM (inactive); with HCC 2998, 18.3 µM (inactive); with CCRF-CEM, 22.2 µM (inactive); in the test with COLO 205, 18 µM (inactive); with SW-620, 32.8 µM (inactive); in the test on HT-29, 26.9 µM (inactive). In addition, the GI50 was 19.3 µM (inactive) in the test with NCI-H23; 16.2 µM (inactive) with LOX IMVI; 24.9 µM (inactive) with Malme-3M; 24 µM (inactive) in the test with A549; 18.3 µM (inactive) with SK-MEL-5; 25.6 µM (inactive) in the test with M14. Besides, the values for the GI50 in the test with HL-60 and with SF-539 were 21.3 µM (inactive) and 22.4 µM (inactive), respectively.
